Measurements reported in ChEMBL document CHEMBL1671626, “In vitro profiling of ceftaroline against a collection of recent bacterial clinical isolates from across the United States” (2008).

Tests used:
Format in all cases: functional
Enterobacteriaceae [1] = experiment: Antibacterial activity against ceftazidime-susceptible Enterobacteriaceae by CLSI M7-A7 broth microdilution method
Enterobacteriaceae [2] = experiment: Antibacterial activity against ceftazidime-susceptible Enterobacteriaceae assessed as susceptible isolates by CLSI M7-A7 broth microdilution method
Enterobacteriaceae [3] = experiment: Antibacterial activity against ceftazidime-susceptible Enterobacteriaceae assessed as resistant isolates by CLSI M7-A7 broth microdilution method
Enterobacteriaceae [4] = experiment: Antibacterial activity against ceftazidime-nonsusceptible Enterobacteriaceae by CLSI M7-A7 broth microdilution method
Enterobacteriaceae [5] = experiment: Antibacterial activity against ceftazidime-nonsusceptible Enterobacteriaceae assessed as susceptible isolates by CLSI M7-A7 broth microdilution method
Enterobacteriaceae [6] = experiment: Antibacterial activity against ceftazidime-nonsusceptible Enterobacteriaceae assessed as resistant isolates by CLSI M7-A7 broth microdilution method
Citrobacter freundii [7] = experiment: Antibacterial activity against ceftazidime-susceptible Citrobacter freundii by CLSI M7-A7 broth microdilution method
Citrobacter freundii [8] = experiment: Antibacterial activity against ceftazidime-susceptible Citrobacter freundii assessed as susceptible isolates by CLSI M7-A7 broth microdilution method
Citrobacter freundii [9] = experiment: Antibacterial activity against ceftazidime-susceptible Citrobacter freundii assessed as resistant isolates by CLSI M7-A7 broth microdilution method
Citrobacter freundii [10] = experiment: Antibacterial activity against ceftazidime-nonsusceptible Citrobacter freundii by CLSI M7-A7 broth microdilution method
Citrobacter freundii [11] = experiment: Antibacterial activity against ceftazidime-nonsusceptible Citrobacter freundii assessed as susceptible isolates by CLSI M7-A7 broth microdilution method
Citrobacter freundii [12] = experiment: Antibacterial activity against ceftazidime-nonsusceptible Citrobacter freundii assessed as resistant isolates by CLSI M7-A7 broth microdilution method
Enterobacter cloacae [13] = experiment: Antibacterial activity against ceftazidime-susceptible Enterobacter cloacae by CLSI M7-A7 broth microdilution method
Enterobacter cloacae [14] = experiment: Antibacterial activity against ceftazidime-susceptible Enterobacter cloacae assessed as susceptible isolates by CLSI M7-A7 broth microdilution method
Enterobacter cloacae [15] = experiment: Antibacterial activity against ceftazidime-susceptible Enterobacter cloacae assessed as resistant isolates by CLSI M7-A7 broth microdilution method
Enterobacter cloacae [16] = experiment: Antibacterial activity against ceftazidime-nonsusceptible Enterobacter cloacae by CLSI M7-A7 broth microdilution method
Enterobacter cloacae [17] = experiment: Antibacterial activity against ceftazidime-nonsusceptible Enterobacter cloacae assessed as resistant isolates by CLSI M7-A7 broth microdilution method
Escherichia coli [18] = experiment: Antibacterial activity against ceftazidime-susceptible Escherichia coli by CLSI M7-A7 broth microdilution method
Escherichia coli [19] = experiment: Antibacterial activity against ceftazidime-susceptible Escherichia coli assessed as susceptible isolates by CLSI M7-A7 broth microdilution method
Escherichia coli [20] = experiment: Antibacterial activity against ceftazidime-susceptible Escherichia coli assessed as resistant isolates by CLSI M7-A7 broth microdilution method
Escherichia coli [21] = experiment: Antibacterial activity against ceftazidime-nonsusceptible Escherichia coli by CLSI M7-A7 broth microdilution method
Escherichia coli [22] = experiment: Antibacterial activity against ceftazidime-nonsusceptible Escherichia coli assessed as susceptible isolates by CLSI M7-A7 broth microdilution method
Escherichia coli [23] = experiment: Antibacterial activity against ceftazidime-nonsusceptible Escherichia coli assessed as resistant isolates by CLSI M7-A7 broth microdilution method
Klebsiella pneumoniae [24] = experiment: Antibacterial activity against ceftazidime-susceptible Klebsiella pneumoniae by CLSI M7-A7 broth microdilution method
Klebsiella pneumoniae [25] = experiment: Antibacterial activity against ceftazidime-susceptible Klebsiella pneumoniae assessed as resistant isolates by CLSI M7-A7 broth microdilution method
Klebsiella pneumoniae [26] = experiment: Antibacterial activity against ceftazidime-nonsusceptible Klebsiella pneumoniae by CLSI M7-A7 broth microdilution method
Klebsiella pneumoniae [27] = experiment: Antibacterial activity against ceftazidime-nonsusceptible Klebsiella pneumoniae assessed as susceptible isolates by CLSI M7-A7 broth microdilution method
Klebsiella pneumoniae [28] = experiment: Antibacterial activity against ceftazidime-nonsusceptible Klebsiella pneumoniae assessed as resistant isolates by CLSI M7-A7 broth microdilution method
Morganella morganii [29] = experiment: Antibacterial activity against ceftazidime-susceptible Morganella morganii by CLSI M7-A7 broth microdilution method
Morganella morganii [30] = experiment: Antibacterial activity against ceftazidime-susceptible Morganella morganii assessed as susceptible isolates by CLSI M7-A7 broth microdilution method
Morganella morganii [31] = experiment: Antibacterial activity against ceftazidime-susceptible Morganella morganii assessed as resistant isolates by CLSI M7-A7 broth microdilution method
Proteus mirabilis [32] = experiment: Antibacterial activity against ceftazidime-susceptible Proteus mirabilis by CLSI M7-A7 broth microdilution method
Proteus mirabilis [33] = experiment: Antibacterial activity against ceftazidime-susceptible Proteus mirabilis assessed as susceptible isolates by CLSI M7-A7 broth microdilution method
Proteus mirabilis [34] = experiment: Antibacterial activity against ceftazidime-susceptible Proteus mirabilis assessed as resistant isolates by CLSI M7-A7 broth microdilution method
Serratia marcescens [35] = experiment: Antibacterial activity against ceftazidime-susceptible Serratia marcescens by CLSI M7-A7 broth microdilution method
Serratia marcescens [36] = experiment: Antibacterial activity against ceftazidime-susceptible Serratia marcescens assessed as resistant isolates by CLSI M7-A7 broth microdilution method
Acinetobacter [37] = experiment: Antibacterial activity against multidrug-resistant Acinetobacter by CLSI M7-A7 broth microdilution method
Acinetobacter [38] = experiment: Antibacterial activity against multidrug-resistant Acinetobacter assessed as susceptible isolates by CLSI M7-A7 broth microdilution method
Acinetobacter [39] = experiment: Antibacterial activity against multidrug-resistant Acinetobacter assessed as resistant isolates by CLSI M7-A7 broth microdilution method
Acinetobacter [40] = experiment: Antibacterial activity against imipenem-susceptible Acinetobacter by CLSI M7-A7 broth microdilution method
Acinetobacter [41] = experiment: Antibacterial activity against imipenem-susceptible Acinetobacter assessed as susceptible isolates by CLSI M7-A7 broth microdilution method
Acinetobacter [42] = experiment: Antibacterial activity against imipenem-susceptible Acinetobacter assessed as resistant isolates by CLSI M7-A7 broth microdilution method
Haemophilus influenzae [43] = experiment: Antibacterial activity against beta lactamase-negative Haemophilus influenzae by CLSI M7-A7 broth microdilution method
Haemophilus influenzae [44] = experiment: Antibacterial activity against beta lactamase-positive Haemophilus influenzae by CLSI M7-A7 broth microdilution method
Haemophilus influenzae [45] = experiment: Antibacterial activity against beta lactamase-positive Haemophilus influenzae assessed as susceptible isolates by CLSI M7-A7 broth microdilution method
Providencia sp. [46] = experiment: Antibacterial activity against ceftazidime-susceptible Providencia sp. by CLSI M7-A7 broth microdilution method
Providencia sp. [47] = experiment: Antibacterial activity against ceftazidime-susceptible Providencia sp. assessed as susceptible isolates by CLSI M7-A7 broth microdilution method
Providencia sp. [48] = experiment: Antibacterial activity against ceftazidime-susceptible Providencia sp. assessed as resistant isolates by CLSI M7-A7 broth microdilution method

GENTAMICIN
MIC50 (Enterobacteriaceae [1]): 0.5 µg/mL | MIC90 (Enterobacteriaceae [1]): 2 µg/mL | Activity (Enterobacteriaceae [2]): 92.6% | Activity (Enterobacteriaceae [3]): 5.9% | MIC50 (Enterobacteriaceae [4]): 4 µg/mL | MIC90 (Enterobacteriaceae [4]): > 16 µg/mL | Activity (Enterobacteriaceae [5]): 52.3% | Activity (Enterobacteriaceae [6]): 40.5% | MIC50 (Citrobacter freundii [7]): 0.5 µg/mL | MIC90 (Citrobacter freundii [7]): 8 µg/mL | Activity (Citrobacter freundii [8]): 88% | Activity (Citrobacter freundii [9]): 10% | MIC50 (Citrobacter freundii [10]): 0.5 µg/mL | MIC90 (Citrobacter freundii [10]): 16 µg/mL | Activity (Citrobacter freundii [11]): 81.8% | Activity (Citrobacter freundii [12]): 18.2% | MIC50 (Enterobacter cloacae [13]): 0.25 µg/mL | MIC90 (Enterobacter cloacae [13]): 0.5 µg/mL | Activity (Enterobacter cloacae [14]): 96% | Activity (Enterobacter cloacae [15]): 2% | MIC50 (Enterobacter cloacae [16]): 0.5 µg/mL | MIC90 (Enterobacter cloacae [16]): 16 µg/mL | Activity (Enterobacter cloacae [17]): 17.1% | MIC50 (Escherichia coli [18]): 0.5 µg/mL | MIC90 (Escherichia coli [18]): 2 µg/mL | Activity (Escherichia coli [19]): 91.9% | Activity (Escherichia coli [20]): 7.5% | MIC50 (Escherichia coli [21]): 16 µg/mL | MIC90 (Escherichia coli [21]): > 16 µg/mL | Activity (Escherichia coli [22]): 46% | Activity (Escherichia coli [23]): 50.8% | MIC50 (Klebsiella pneumoniae [24]): 0.25 µg/mL | MIC90 (Klebsiella pneumoniae [24]): 0.5 µg/mL | Activity (Klebsiella pneumoniae [25]): 1.9% | MIC50 (Klebsiella pneumoniae [26]): 8 µg/mL | MIC90 (Klebsiella pneumoniae [26]): > 16 µg/mL | Activity (Klebsiella pneumoniae [27]): 43.9% | Activity (Klebsiella pneumoniae [28]): 43.9% | MIC50 (Morganella morganii [29]): 0.5 µg/mL | MIC90 (Morganella morganii [29]): 4 µg/mL | Activity (Morganella morganii [30]): 91.2% | Activity (Morganella morganii [31]): 8.8% | MIC50 (Proteus mirabilis [32]): 1 µg/mL | MIC90 (Proteus mirabilis [32]): 8 µg/mL | Activity (Proteus mirabilis [33]): 84.5% | Activity (Proteus mirabilis [34]): 8.6% | MIC50 (Serratia marcescens [35]): 0.5 µg/mL | MIC90 (Serratia marcescens [35]): 1 µg/mL | Activity (Serratia marcescens [36]): 1.7% | MIC50 (Acinetobacter [37]): > 16 µg/mL | MIC90 (Acinetobacter [37]): > 16 µg/mL | Activity (Acinetobacter [38]): 18.8% | Activity (Acinetobacter [39]): 75% | MIC50 (Acinetobacter [40]): 1 µg/mL | MIC90 (Acinetobacter [40]): > 16 µg/mL | Activity (Acinetobacter [41]): 74.5% | Activity (Acinetobacter [42]): 21.3% | MIC50 (Haemophilus influenzae [43]): 1 µg/mL | MIC90 (Haemophilus influenzae [43]): 2 µg/mL | MIC50 (Haemophilus influenzae [44]): 1 µg/mL | MIC90 (Haemophilus influenzae [44]): 2 µg/mL | Activity (Haemophilus influenzae [45]): 0% | MIC50 (Providencia sp. [46]): 2 µg/mL | MIC90 (Providencia sp. [46]): > 16 µg/mL | Activity (Providencia sp. [47]): 74.1% | Activity (Providencia sp. [48]): 14.8%
